Test [1] concerns the target α1β1γδ subtype of nicotinic acetylcholine receptors (Rattus norvegicus, UniProt P18916+P25108+P25110). The experiment in a line: biochemical. The test is classed as binding. The conditions noted are these: for remaining activity at 100 µM / remaining activity at 1000 µM: read-out: control % of [3H]-α-Bgt binding. An excerpt:
(§1) The methods for evaluating the binding capabilities of the compounds at nicotinic acetylcholine receptors are different by subtypes of receptors. The binding capabilities of the compounds at α4β2 nicotinic acetylcholine receptors are examined using rat brain membrane obtained from whole homogenized brain, and determining the inhibiting rate of the compounds against [^3H]-cytisine binding to said brain membrane. Furthermore, the binding capabilities of the compounds at α1β1γδ nicotinic acetylcholine receptors are examined using homogenized rat muscle, and determining the inhibiting rate of the compounds against [^3H]-α-bungarotoxin binding to said muscle homogenate.
The affinity of the compounds of the present invention to α1β1γδ subtype of nicotinic acetylcholine receptors was measured by the following method, which was modified method described by Garcha H. S., Thomas P., Spivak C. E., Wonnacott S. & Stolerman I. P., Psychropharmacology, 110, 347-354 (1993).
(1) Preparation of Rat Skeletal Muscles Containing α1β1γδ Subtype of Nicotinic Acetylcholine Receptors
The substantially same animals described in the Biological Experiment 1 were used.
The isolation of α1β1γδ subtype of nicotinic acetylcholine receptors was performed as follow. That is, rat posterior skeletal muscles were isolated just after sacrificed by decapitation, washed with ice-cooled saline solution and then frozen at −80° C. with liquid nitrogen and stored till using. After thawing the frozen muscles, tissue was homogenized (40% w/v) with buffer solution [2.5 mM of sodium phosphate buffer (pH:7.2), 90 mM of NaCl, 2 mM of KCl, 1 mM of EDTA, 2 mM of benzamidine, 0.1 mM of benzethonium chloride, 0.1 mM of PMSF, 0.01% of sodium azide] in Waring blender (Waring blender 34BL97; WARING PRODUCTS DIVISION DYNAMICS CORPORATION OF AMERICA) for 60 seconds. The homogenate were centrifuged under 20,000×G for 60 minutes at 4° C. The supernatant was separated and the resulting pellet was added to the same buffer (1.5 ml/g wet weight), and homogenized under the same conditions. Triton X100 (2% w/v) was added and the mixture was stirred for 3 hours at 4° C. The centrifugation at 100,000×G for 60 minutes at 4° C. yielded the rat muscle extract as supernatant. This was stored at 4° C. for up to 4 weeks, and used for binding assays at receptors.
(2) Experiments of α1β1γδ Subtype of Nicotinic Acetylcholine Receptors Binding
Receptors binding experiments were performed as follow. That is, the extract of rat muscle containing 600-900 μg of protein was added to test tubes containing test compounds and incubated for 15 minutes at 37° C. Then, to this mixture was added 1 nM of [^3H]-α-bungarotoxin (α-Bgt) and further incubated for 2 hours. The samples were isolated by vacuum filtration onto Whatman GF/B filters, which were prerinsed with 0.5% polyethylenimine just prior to sample filtration, using Brandel multi manifold cell harvester. The filters were rapidly rinsed with washing solution (10 mM of KH2PO4, 150 mM of NaCl, pH 7.2, room temperature) (5×1 ml). The filters were counted in 3 ml of clearsol I (Nacalai Tesque Inc.). The determination of nonspecific binding was incubated in the presence of 1 μM α-Bgt. The solutions containing α-Bgt (labeled/non-labeled) were prepared by using buffer solution containing 0.25% of BSA. In the receptor binding experiments, said buffer solution was added for adjusting the final concentration of BSA to be 0.05%.
The analyses of the experimental results were conducted by the same way as described in the Biological Experiment 1.

For test [2], the target named is T1, α4β2 subtype of nicotinic acetylcholine receptors (Rattus norvegicus, UniProt P09483+P12390).
T1 construct: rat brain membrane obtained from whole homogenized brain; from tissue; host or cells: whole brain of Fischer-344 male rats, membrane fraction
The experiment in a line: Binding assay at α4β2 subtype of nicotinic acetylcholine receptors ([3H]-cytisine, rat brain membrane). The conditions noted are these: for remaining activity at 1 µM / remaining activity at 10 µM: read-out: control % of [3H]-cytisine binding.
Text: as §1
The affinity of the compounds of the present invention to α4β2 subtype of nicotinic acetylcholine receptors was performed by the following method, which was modified method described by Pabreza L. A., Dhawan S. & Kellar K. J., Mol. Pharm., 39, 9-12 (1990), and by Anderson D. J. & Arneric S. P., Eur. J. Pharm., 253, 261-267 (1994).
(1) Preparation of Rat Brain Membrane Containing α4β2 Subtype of Nicotinic Acetylcholine Receptors
Fischer-344 strain male rats (body weight: 200-240 g; 9 weeks old) obtained from Charles River Japan were used. Rats were housed in the breeding cage controlled of the room temperature at 23±1° C., and the humidity of 55±5% for 1 to 4 weeks. Rats (3 to 4 rats per a cage) were housed with lights on for 12 hours daily (from 7:00 to 19:00), and allowed free access to food and water.
Preparation of rat brain membrane containing α4β2 subtype of nicotinic acetylcholine receptors was performed as follow. That is, rat brains were isolated just after sacrificed by decapitation, washed with ice-cooled saline solution and then frozen at −80° C. with liquid nitrogen and stored till using. After thawing the frozen brain, the brain was homogenized in 10 volumes of ice-cooled buffer solution (50 mM of Tris-HCl, 120 mM of NaCl, 5 mM of KCl, 1 mM of MgCl2, 2 mM of CaCl2; pH 7.4; 4° C.) using homogenizer (HG30, Hitachi Kohki Ltd.) for 30 seconds, and the homogenate were centrifuged under 1,000×G for 10 minutes at 4° C. The resulting supernatant was separated and the pellet was homogenized again with half volume of aforementioned prior buffer solution and centrifuged under the same conditions. Combined supernatant was further centrifuged under 40,000×G for 20 minutes at 4° C. The pellet was suspended in buffer solution and used for binding assays at receptors.
(2) Experiments of α4β2 Subtype of Nicotinic Acetylcholine Receptors Binding
Suspensions of membrane pellets containing 400-600 μg of protein were added to test tubes containing test compounds and [^3H]-cytisine (2 nM) in a final volume of 200 μl and incubated for 75 minutes in ice-cooled bath. The samples were isolated by vacuum filtration onto Whatman GF/B filters, which were prerinsed with 0.5% polyethylenimine just prior to sample filtration, using Brandel multi manifold cell harvester. The filters were rapidly washed with buffer solution (3×1 ml). The filters were counted in 3 ml of clearsol I (Nacalai Tesque Inc.).
The analyses of the experimental results were conducted by using the Accufit Competition Program (Beckman Ltd.).

The structures appear in SMILES notation. Like-named read-outs stand apart in the source and are kept apart here.

α1β1γδ subtype of nicotinic acetylcholine receptors, sequence (P25109 24-501): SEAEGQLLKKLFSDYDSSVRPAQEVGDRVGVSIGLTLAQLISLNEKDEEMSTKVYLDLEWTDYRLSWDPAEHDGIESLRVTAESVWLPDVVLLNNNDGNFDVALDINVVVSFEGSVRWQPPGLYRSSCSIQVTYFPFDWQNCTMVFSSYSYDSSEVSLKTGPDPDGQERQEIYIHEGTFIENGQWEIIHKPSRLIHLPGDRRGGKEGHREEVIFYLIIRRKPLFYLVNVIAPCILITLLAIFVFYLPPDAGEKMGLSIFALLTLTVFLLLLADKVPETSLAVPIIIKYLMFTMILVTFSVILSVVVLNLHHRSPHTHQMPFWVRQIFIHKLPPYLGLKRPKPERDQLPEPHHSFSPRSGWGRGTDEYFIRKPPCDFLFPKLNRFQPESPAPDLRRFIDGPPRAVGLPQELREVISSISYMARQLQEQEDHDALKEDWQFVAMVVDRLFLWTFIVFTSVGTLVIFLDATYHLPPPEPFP
α1β1γδ subtype of nicotinic acetylcholine receptors, sequence (P25110 22-517): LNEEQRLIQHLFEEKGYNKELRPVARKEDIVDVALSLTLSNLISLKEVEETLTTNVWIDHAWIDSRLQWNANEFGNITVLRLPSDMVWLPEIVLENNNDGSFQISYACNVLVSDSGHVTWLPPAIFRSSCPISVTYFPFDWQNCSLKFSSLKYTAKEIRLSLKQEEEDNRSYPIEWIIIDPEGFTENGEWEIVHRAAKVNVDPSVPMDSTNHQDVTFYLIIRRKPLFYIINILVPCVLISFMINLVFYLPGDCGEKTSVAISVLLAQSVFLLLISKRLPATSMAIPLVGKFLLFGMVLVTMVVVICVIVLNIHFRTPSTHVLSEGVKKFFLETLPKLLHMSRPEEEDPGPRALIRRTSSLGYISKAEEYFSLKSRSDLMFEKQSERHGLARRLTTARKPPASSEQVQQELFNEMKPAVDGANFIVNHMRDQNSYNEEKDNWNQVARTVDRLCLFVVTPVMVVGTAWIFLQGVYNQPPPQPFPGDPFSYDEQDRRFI
α1β1γδ subtype of nicotinic acetylcholine receptors, sequence (P25108 21-457): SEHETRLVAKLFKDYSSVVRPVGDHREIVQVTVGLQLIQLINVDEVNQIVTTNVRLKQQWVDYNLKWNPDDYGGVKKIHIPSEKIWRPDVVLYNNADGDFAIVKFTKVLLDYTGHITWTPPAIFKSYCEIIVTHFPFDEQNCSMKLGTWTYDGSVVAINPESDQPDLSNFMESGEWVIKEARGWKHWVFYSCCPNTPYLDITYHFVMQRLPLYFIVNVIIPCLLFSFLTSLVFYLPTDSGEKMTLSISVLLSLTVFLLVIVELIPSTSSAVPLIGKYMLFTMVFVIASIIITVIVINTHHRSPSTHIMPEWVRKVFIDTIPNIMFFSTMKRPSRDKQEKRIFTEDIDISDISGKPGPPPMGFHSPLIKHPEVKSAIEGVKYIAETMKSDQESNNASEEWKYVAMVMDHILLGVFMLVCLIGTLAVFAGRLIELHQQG
α1β1γδ subtype of nicotinic acetylcholine receptors, sequence (P18916 23-519): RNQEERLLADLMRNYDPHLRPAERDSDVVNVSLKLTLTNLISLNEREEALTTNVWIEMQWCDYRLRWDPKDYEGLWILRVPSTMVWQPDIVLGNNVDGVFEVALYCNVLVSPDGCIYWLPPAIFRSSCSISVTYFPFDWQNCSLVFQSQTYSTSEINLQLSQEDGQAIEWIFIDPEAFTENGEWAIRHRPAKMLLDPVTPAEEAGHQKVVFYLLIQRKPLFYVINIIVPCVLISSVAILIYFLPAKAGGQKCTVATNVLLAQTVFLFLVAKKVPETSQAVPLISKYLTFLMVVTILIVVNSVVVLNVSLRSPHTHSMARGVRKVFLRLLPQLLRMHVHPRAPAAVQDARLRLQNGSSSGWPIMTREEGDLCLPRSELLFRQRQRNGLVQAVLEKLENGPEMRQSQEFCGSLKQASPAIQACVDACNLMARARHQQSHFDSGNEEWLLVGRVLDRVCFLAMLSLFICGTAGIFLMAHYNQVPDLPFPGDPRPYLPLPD
T1 sequence (P09483 31-630): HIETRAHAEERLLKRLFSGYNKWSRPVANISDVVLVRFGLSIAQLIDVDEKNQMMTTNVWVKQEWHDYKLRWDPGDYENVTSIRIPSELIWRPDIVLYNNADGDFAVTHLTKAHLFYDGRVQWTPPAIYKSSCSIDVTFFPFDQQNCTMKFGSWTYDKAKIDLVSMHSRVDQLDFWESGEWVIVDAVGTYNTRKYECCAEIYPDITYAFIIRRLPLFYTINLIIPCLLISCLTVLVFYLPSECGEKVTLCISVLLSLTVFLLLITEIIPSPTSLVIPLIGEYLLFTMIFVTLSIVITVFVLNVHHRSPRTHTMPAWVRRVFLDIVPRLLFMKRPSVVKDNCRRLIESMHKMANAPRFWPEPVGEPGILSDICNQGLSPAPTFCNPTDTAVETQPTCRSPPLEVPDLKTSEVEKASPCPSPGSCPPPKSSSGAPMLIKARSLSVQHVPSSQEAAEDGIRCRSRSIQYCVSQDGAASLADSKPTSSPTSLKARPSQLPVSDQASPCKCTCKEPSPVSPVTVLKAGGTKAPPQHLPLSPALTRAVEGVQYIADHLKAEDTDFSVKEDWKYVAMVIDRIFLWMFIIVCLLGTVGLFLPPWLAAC
T1 sequence (P12390 25-500): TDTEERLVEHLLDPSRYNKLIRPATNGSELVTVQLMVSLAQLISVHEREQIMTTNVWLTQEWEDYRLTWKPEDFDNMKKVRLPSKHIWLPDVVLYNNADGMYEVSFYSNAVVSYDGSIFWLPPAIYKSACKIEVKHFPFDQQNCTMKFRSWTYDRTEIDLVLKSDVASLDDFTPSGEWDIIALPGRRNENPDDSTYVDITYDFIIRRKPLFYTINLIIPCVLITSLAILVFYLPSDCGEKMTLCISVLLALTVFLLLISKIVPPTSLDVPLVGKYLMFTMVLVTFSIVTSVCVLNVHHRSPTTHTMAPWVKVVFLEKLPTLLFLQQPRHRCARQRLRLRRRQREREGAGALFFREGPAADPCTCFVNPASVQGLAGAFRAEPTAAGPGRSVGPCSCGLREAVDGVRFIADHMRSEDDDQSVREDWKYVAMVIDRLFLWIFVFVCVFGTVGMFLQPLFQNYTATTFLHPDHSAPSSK

For the compound `Nc1nccn1CCc1ccccc1Sc1ccc(O)cc1` [Compound 32, 2-amino-1-{2-[2-(4-hydroxyphenyl)thiophenyl]ethyl}-imidazole], in test [1], the remaining activity at 100 µM was found to be 107% and the remaining activity at 1000 µM was 81%. The remaining activity at 1 µM in test [2] (1 μM of test compound, rat brain membrane) was determined as 102%. In test [2] (10 μM of test compound, rat brain membrane), the remaining activity at 10 µM amounted to 73%.

What is called Ki is a dissociation constant, usually derived from enzyme kinetics or from competition with a known ligand. Take `CC(Cn1ccsc1=N)c1ccc(Cl)nc1` (stereo not shown) [Compound 18, 3-[2-(6-chloro-3-pyridyl)propyl]-2-imino-2,3-dihydrothiazole]: the inhibition constant (Ki) amounted to 173 µM in test [1] (read-out: Affinities for receptors Ki α1β1γδ, rat muscle extract, [3H]-α-Bgt 1 nM) and 0.084 µM in test [2].

For `N=c1ccc(Cl)nn1CCc1ccc(Cl)nc1` [Compound 15, 6-chloro-2-[2-(6-chloro-3-pyridyl)ethyl]-3-imino-2,3-dihydropyridazine], in test [1], the remaining activity at 100 µM worked out at 93% and the remaining activity at 1000 µM was found to be 61%. In test [2], the remaining activity at 1 µM came to 60% and the remaining activity at 10 µM is 12%.

The values above are taken from patent US20030134848A1, “Substituted 1-aza-2-imino-heterocycles and their use as nicotinic acetylcholin receptors activators” (priority 2000, published 2003).
